In patent US20170008888A1 (KYORIN PHARMACEUTICAL CO., LTD., priority 2014, published 2017):
Marks after values point to notes of the source that are not given here.

How the values were obtained:
[1] = target: T1, PCAF (Homo sapiens, UniProt Q92831); assay: Bromodomain binding assay: PCAF
T1 construct: made in house; host or cells: E. coli host derived from the BL21 strain (T7 phage lysate)
Protocol: (§1) T7 phage strains displaying bromodomains were grown in parallel in 24-well blocks in an E. coli host derived from the BL21 strain. E. coli were grown to log-phase and infected with T7 phage from a frozen stock (multiplicity of infection=0.4) and incubated with shaking at 32° C. until lysis (90-150 minutes). The lysates were centrifuged (5,000×g) and filtered (0.2 μm) to remove cell debris. […] The liganded beads were blocked with excess biotin and washed with blocking buffer (SeaBlock (Pierce), 1% BSA, 0.05 Tween 20, 1 mM DTT) to remove unbound ligand and to reduce non-specific phage binding. […] Test compounds (T62 and 46) were prepared as 1000× stocks in 100% DMSO and subsequently diluted 1:10 in monoethylene glycol (MEG) to create stocks at 100× the screening concentration (resulting stock solution is 10% DMSO/90% MEG). The compounds were then diluted directly into the assays such that the final concentration of DMSO and MEG were 0.1% and 0.9%, respectively. All reactions were performed in polystyrene 96-well plates in a final volume of 0.135 ml. […] The bromodomain concentration in the eluates was measured by qPCR. Compounds were assayed for binding activity against a panel of 40 bromodomain-containing proteins.

[2] = target: T2, BAZ2B (Homo sapiens, UniProt Q9UIF8); assay: Bromodomain binding assay: BAZ2B
T2 construct: T7 phage strains displaying bromodomains were grown in parallel; made in house; host or cells: E. coli host derived from BL21, infected with T7 phage
Protocol: as §1

[3] = tested on: Imiquimod-induced psoriasis mouse model; assay: Imiquimod (IMQ)-induced acute model of psoriasis in mouse: skin thickness, erythema, scaling; assay type: in vivo, mouse (Balb/c)
Protocol: Material and methods for the IMQ study were adapted from van der Fits et al. J Immunol., 2009, 182: 5836-5845. Eight week old male Balb/c mice (Harlan) received a daily topical dose of 62.5 mg 5% IMQ cream (Aldara™, Medicis) equivalent to 3.125 mg IMQ, on the shaved back (approximately 2×3.5 cm patch) and dorsal surface of the right ear for 6 consecutive days. Sham control mice were treated similarly with control cream (Hydrous Emulsified Base, HEB, Cream, Fagron). Treatments were administered by group as indicated in Table 1 below prior to daily application of IMQ (QD and morning dose of BID regimens), n=10 for all groups. […] Body weights and scoring of induced clinical disease were performed after dosing (Days 1-7) but prior to IMQ application (Days 1-6) on Days 1 (baseline), 3, 4, 6, 8. Mice were sacrificed on Day 8 and treated back skin tissue collected and divided for fixation for histopathology (a 12 mm punch in mid-back) the remainder flash frozen; right (IMQ) and left (control) ears, spleen (after wet weight) and lung were also individually collected and flash frozen, and stored at −70° C. for subsequent biochemical analyses. Statistics were performed using one-way ANOVA with Dunnett's post-hoc test comparing treated groups to the vehicle group, using InStat software (GraphPad, La Jolla, Calif.).
The severity of clinical disease was assessed by
1) skin thickness dial gauge micrometer measurements (duplicate) of the ears and the dorsal skin at the midline of the back (equal to double true measure of dorsal skin thickness)
2) erythema and scaling, independently scored on a scale from 0-4: 0=none, 1=slight, 2=moderate, 3=marked, 4=very marked with intermediate increments of 0.5 allowed.
Clinical disease assessments included erythema, scaling, skin thickness and cumulative disease severity scores and the change in skin thickness of the ears and dorsal back skin over time compared to baseline measurements (Tables 19 and 20). Body weights of the mice were measured at baseline and at end of study, and there were no significant changes in weight in any treatment group during the study (data not shown).

T1 sequence (Q92831 723-827 limits assumed): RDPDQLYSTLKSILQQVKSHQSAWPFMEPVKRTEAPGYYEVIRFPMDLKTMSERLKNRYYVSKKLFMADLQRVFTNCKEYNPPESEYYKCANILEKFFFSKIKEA
T2 sequence (Q9UIF8 2060-2164 limits assumed, species assumed): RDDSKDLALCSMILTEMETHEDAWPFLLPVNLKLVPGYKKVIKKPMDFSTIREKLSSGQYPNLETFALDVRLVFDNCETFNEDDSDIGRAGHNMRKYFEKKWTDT

## CCOc1cc(C(=O)N2CCC(N3CCCC3)CC2)ccc1Nc1cc2c(cn1)N(C)C(=O)c1ccccc1N2C [Compound 46, 3-(2-Ethoxy-4-(4-(pyrrolidin-1-yl)piperidine-1-carbonyl)phenylamino)-5,11-dimethyl-5H-benzo[e]pyrido[3,4-b][1,4]diazepin-10(11H)-one]
[1]
  Kd: > 20 µM
[2]
  Kd: > 20 µM
[3]; Day 1 (baseline), 60 mpk BID
  Clinical Score Erythema (0-4), AVG Score: 0
  Clinical Score Scaling (0-4), AVG Score: 0
[3]; Day 1 (baseline), 60 mpk QD
  Clinical Score Erythema (0-4), AVG Score: 0
  Clinical Score Scaling (0-4), AVG Score: 0
[3]; Day 3, 25 mpk BID
  % Mean DORSAL BACK THICKNESS versus day 1, AVG: 29.55%
  % Mean LEFT EAR THICKNESS [Control] versus day 1, AVG: −7.42%
  % Mean RIGHT EAR THICKNESS [IMQ] versus day 1, AVG: 6.71%
[3]; Day 3, 60 mpk BID
  % Mean DORSAL BACK THICKNESS versus day 1, AVG: 34.79%
  % Mean LEFT EAR THICKNESS [Control] versus day 1, AVG: −8.07%
  % Mean RIGHT EAR THICKNESS [IMQ] versus day 1, AVG: 3.35%
  Clinical Score Erythema (0-4), AVG Score: 1.15
  Clinical Score Scaling (0-4), AVG Score: 0.5
[3]; Day 3, 60 mpk QD
  % Mean DORSAL BACK THICKNESS versus day 1, AVG: 41.12%
  % Mean LEFT EAR THICKNESS [Control] versus day 1, AVG: −8.74%
  % Mean RIGHT EAR THICKNESS [IMQ] versus day 1, AVG: 3.71%
  Clinical Score Erythema (0-4), AVG Score: 1.05
  Clinical Score Scaling (0-4), AVG Score: 0.5
[3]; Day 4, 25 mpk BID
  % Mean DORSAL BACK THICKNESS versus day 1, AVG: 43.62%
  % Mean LEFT EAR THICKNESS [Control] versus day 1, AVG: −5.56%
  % Mean RIGHT EAR THICKNESS [IMQ] versus day 1, AVG: 12.03%
[3]; Day 4, 60 mpk BID
  % Mean DORSAL BACK THICKNESS versus day 1, AVG: 45.39%
  % Mean LEFT EAR THICKNESS [Control] versus day 1, AVG: −3.95%
  % Mean RIGHT EAR THICKNESS [IMQ] versus day 1, AVG: 11.25%
  Clinical Score Erythema (0-4), AVG Score: 1.3
  Clinical Score Scaling (0-4), AVG Score: 0.55
[3]; Day 4, 60 mpk QD
  % Mean DORSAL BACK THICKNESS versus day 1, AVG: 54.57%
  % Mean LEFT EAR THICKNESS [Control] versus day 1, AVG: −7.01%
  % Mean RIGHT EAR THICKNESS [IMQ] versus day 1, AVG: 9.53%
  Clinical Score Erythema (0-4), AVG Score: 1.3
  Clinical Score Scaling (0-4), AVG Score: 0.6
[3]; Day 6, 25 mpk BID
  % Mean DORSAL BACK THICKNESS versus day 1, AVG: 84.46* %
  % Mean LEFT EAR THICKNESS [Control] versus day 1, AVG: −1.35%
  % Mean RIGHT EAR THICKNESS [IMQ] versus day 1, AVG: 37.60* %
[3]; Day 6, 60 mpk BID
  % Mean DORSAL BACK THICKNESS versus day 1, AVG: 72.41** %
  % Mean LEFT EAR THICKNESS [Control] versus day 1, AVG: 1.37%
  % Mean RIGHT EAR THICKNESS [IMQ] versus day 1, AVG: 33.34** %
  Clinical Score Erythema (0-4), AVG Score: 1.65
  Clinical Score Scaling (0-4), AVG Score: 2.55
[3]; Day 6, 60 mpk QD
  % Mean DORSAL BACK THICKNESS versus day 1, AVG: 90.77^NS %
  % Mean LEFT EAR THICKNESS [Control] versus day 1, AVG: 8.65%
  % Mean RIGHT EAR THICKNESS [IMQ] versus day 1, AVG: 38.11* %
  Clinical Score Erythema (0-4), AVG Score: 2.25
  Clinical Score Scaling (0-4), AVG Score: 3.05
[3]; Day 8, 25 mpk BID
  % Mean DORSAL BACK THICKNESS versus day 1, AVG: 46.07^NS %
  % Mean LEFT EAR THICKNESS [Control] versus day 1, AVG: −3.26%
  % Mean RIGHT EAR THICKNESS [IMQ] versus day 1, AVG: 43.36** %
[3]; Day 8, 60 mpk BID
  % Mean DORSAL BACK THICKNESS versus day 1, AVG: 41.36^NS %
  % Mean LEFT EAR THICKNESS [Control] versus day 1, AVG: −1.92%
  % Mean RIGHT EAR THICKNESS [IMQ] versus day 1, AVG: 40.66** %
  Clinical Score Erythema (0-4), AVG Score: 1.3
  Clinical Score Scaling (0-4), AVG Score: 1.45
[3]; Day 8, 60 mpk QD
  % Mean DORSAL BACK THICKNESS versus day 1, AVG: 45.99^NS %
  % Mean LEFT EAR THICKNESS [Control] versus day 1, AVG: 0.14%
  % Mean RIGHT EAR THICKNESS [IMQ] versus day 1, AVG: 48.04** %
  Clinical Score Erythema (0-4), AVG Score: 1.1
  Clinical Score Scaling (0-4), AVG Score: 1.7
